Data published in paper PMC10824102, “Identification of small molecule inhibitors of G3BP-driven stress granule formation” (The Journal of Cell Biology, 2024).

Assays:
[1] = tested on: stress granule formation in WT cell line with endogenous G3BP1; assay: Stress granule formation in WT cell line with endogenous G3BP1 (immunofluorescence); assay type: cell-based; details: Figure S2H: 50 μM, 250 μM NaAsO2 for 30 min
Experimental: U2OS cells or U2OS cells stably expressing G3BP1-GFP were seeded in four-well Lab-Tek II Chambered Coverglass (1055360; Thermo Fisher Scientific). For preincubation experiments, cells were treated with 50 μM G3I compound for 20 min or 24 h, followed by 250 μM NaAsO2 and 50 μM G3I compound for 30 min. For posttreatment, cells were treated with 250 μM NaAsO2 for 30 min, followed by treatment with 250 μM NaAsO2 and 50 μM G3I compound for 5 min. Cells were then washed twice with PBS and fixed with 4% PFA in PBS for 10 min. Cells were then washed three times with PBS (5 min between each wash), permeabilized with 0.5% Triton X-100 in PBS for 10 min, and washed twice with PBS. Next, cells were blocked for 1 h with 3% BSA in PBS at room temperature, followed by incubation with primary antibodies diluted in 3% BSA overnight at 4°C. Cells were then washed three times with PBS (5 min between each wash) and incubated with secondary antibodies and Hoechst diluted in 3% BSA at room temperature for 1 h. Cells were then washed three times with PBS (5 min between each wash) and imaged. Primary antibodies were as follows: G3BP1 (Cat# 611127, RRID:AB_398438; BD Biosciences) at 1:200; TDP-43 (Cat# 12892-1-AP, RRID:AB_2200505; Proteintech) at 1:50; eIF3η (Cat# sc-137214, RRID:AB_2277705; Santa Cruz Biotechnology) at 1:100 dilution; PABP (Cat# ab21060, RRID:AB_777008; Abcam) at 1:1,000 dilution; and FXR1 (Cat# ab51970, RRID:AB_880113; Abcam) at 1:100 dilution. Secondary antibodies were as follows: donkey anti-mouse Alexa Fluor 647 (Cat# A-31571, RRID:AB_162542; Thermo Fisher Scientific), donkey anti-rabbit Alexa Fluor 555 (Cat# A-31572 [also A31572], RRID:AB_162543; Thermo Fisher Scientific), and donkey anti-goat Alexa Fluor 555 (Cat# A-21432 [also A21432], RRID:AB_2535853; Thermo Fisher Scientific). Nuclei were stained with Hoechst 33342 (40046; Biotium) at 1:10,000 dilution. All imaging was acquired on a Yokogawa CSU W1 spinning disk attached to a Nikon Ti2 eclipse with a Photometrics Prime 95B camera using Nikon Elements software (versions 5.20.00 to 5.21.02). Imaging was performed through a Nikon Plan Apo 60× 1.40 NA oil objective with Immersol 518 F (refractive index 1.518; Zeiss), and Perfect Focus 2.0 (Nikon) was engaged for all captures.

[2] = tested on: G3BP1 and FUS R495X puncta in U2OS cells with tdTomato-tagged endogenous G3BP1; assay: Pretreatment before FUS R495X transfection, cytoplasmic puncta area; assay type: cell-based; details: 50 μM, 20 min before FUS R495X transfection, 24 h
Experimental: U2OS cells with knock-in of G3BP1-tdTomato ([Yang et al., 2020]) were seeded into 96-well plates (3904; Corning). Either GFP-VCP-A232E or GFP-FUS-R495X were transfected into cells using ViaFect transfection reagent (Promega) 24 h prior to the start of the experiment. For samples to be treated with compounds G3Ia or G3Ia′, Hoechst (1:5,000; Biotium) was added and incubated for 30 min prior to the start of the experiment, washed once with PBS, and the media was changed to 100 μl FluoroBrite DMEM media (Gibco) upon starting the experiment. Imaging of plates was performed on a Cytation C10 spinning disk confocal (BioTek) with a Hamamatsu Orca-Flash 4.0 camera using Gen5 software (version 3.11). Imaging was performed through an Olympus Plan Apo 40× 0.6 NA dry objective with an adjustable collar set to 0.5 μm thickness. Laser autofocus prior to imaging the tdTomato channel was utilized for each image. The temperature was maintained at 37°C on the instrument and the cells were supplied with 5% CO2. A 7 × 7 tilescan was taken at the center of each well, capturing the tdTomato and GFP channels (and Hoechst when present). After completing the tilescan, 100 μl FluoroBrite with 100 μM (2×) G3I compound (vortexed for 5 s) was added to each well and incubated for 20 min before starting another round of imaging in the same locations as the first round. Samples treated with G3Ib or G3Ib′ were analyzed manually, scoring each cell with spontaneous granules for the presence or absence of granules following treatment with the compound. For experiments in which G3I compounds were pretreated prior to transfection, 50 μM of indicated compound or vehicle control were added to U2OS cells 20 min prior to the addition of the transfection reagent. After 24 h of transfection, the cells were washed with PBS, fixed in 4% formaldehyde, and incubated with Hoechst (1:5,000; Biotium) in PBS for 30 min prior to the start of the experiment, washed once with PBS, and at room temperature imaging on the Cytation C10 spinning disk confocal was performed as described above.
Samples treated with G3Ia or G3Ia′ were analyzed using an automated pipeline. Segmentation was performed in both ilastik and Cellpose 2.0. Nuclear segmentation using the Hoechst channel and granule segmentation in both GFP and tdTomato channels was performed via pixel classification in ilastik using small cropped portions of the tilescan as the training dataset for each. Individual cell segmentation was performed in Cellpose 2.0 by inputting a merged RGB of the Hoechst and G3BP1-tdTomato channels. The Cellpose output was then eroded by one pixel and set as a binary mask in Fiji. […]

NTF2L domain of G3BP1 = target: T1, NTF2L domain of G3BP1 (Homo sapiens, UniProt Q13283); assay: SPR binding of compounds to sensor-immobilized G3BP1; details: for Kd: equilibrium analysis, 1:1 binding model, 25°C, pH 7.4; for Kd of inactive enantiomer relative to active compound: SPR, same domain
T1 construct: made in house; host or cells: E. coli BL21 (DE3)
Experimental: Binding affinity for G3BP1 was measured by SPR assay using a Biacore 8K instrument (Cytiva) at 25°C at pH 7.4 (20 mM Tris, 300 mM NaCl, 0.05% Tween-20, 2% DMSO) using neutravidin sensor chips. The binding of solution phase molecules was measured to sensor-bound biotinylated, AVI-tagged versions of the NTF2L domain of G3BP1. G3BP1 was captured on the sensor surface at the beginning of each experiment at a level of ∼1,000 RU. A neutravidin-only surface was used as a reference. Binding affinity was measured by equilibrium analysis of double-reference subtracted data performed at seven different analyte concentrations. A 1:1 binding model was used to estimate affinity; the maximum binding response was typically about 90% of the theoretical maximum for a 1:1 interaction given the size of the protein and analytes. Binding at the end of a 90-s association phase was measured; data were only used where equilibrium binding was reached. No regeneration was performed between binding cycles as all tested molecules dissociated completely from the sensor at the end of each cycle. Estimation of binding affinity by kinetic analysis was not performed as kinetic constants were beyond the range that could be reliably measured by the instrumentation.

T1 sequence (Q13283 11-133 limits assumed): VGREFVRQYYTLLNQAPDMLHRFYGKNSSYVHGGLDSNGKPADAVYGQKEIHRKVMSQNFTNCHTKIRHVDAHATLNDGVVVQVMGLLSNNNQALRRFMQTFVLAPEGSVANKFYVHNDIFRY

Compound | stress granule formation by endogenous G3BP signal [1] | area of G3BP1 found in puncta compared with vehicle-treated cells [2] | formation and incorporation of FUS R495X into cytoplasmic granules [2] | Kd (NTF2L domain of G3BP1) [µM] | Kd of inactive enantiomer relative to active compound (NTF2L domain of G3BP1) [fold]
COCCC(NC(=O)C(C)NC(=O)C(NC(=O)C(NC(=O)C(F)CC(C)(C)C)C(C)(C)O)C(C)c1ccccc1)C(=O)N(C)Cc1ccccc1 (centres unmarked) [G3Ia] | effectively blocked stress granule formation | reduced the area of G3BP1 found in puncta | failed to block the formation and incorporation of FUS R495X into cytoplasmic granules | 0.54 | –
COCCC(NC(=O)C(C)NC(=O)C(NC(=O)C(NC(=O)C(F)CC(C)(C)C)C(C)(C)O)C(C)c1ccccc1)C(=O)N(C)Cc1ccccc1 (centres unmarked) [G3Ia′] | not | – | – | 75.5 | > 100
CC(NC(=O)C(NC(=O)C(NC(=O)CCC(C)(C)C)C(C)(C)O)C(C)c1ccccc1)C(=O)N1CCCC1c1ccccc1 (centres unmarked) [G3Ib] | effectively blocked stress granule formation | reduced the area of G3BP1 found in puncta | failed to block the formation and incorporation of FUS R495X into cytoplasmic granules | 0.15 | –
CC(NC(=O)C(NC(=O)C(NC(=O)CCC(C)(C)C)C(C)(C)O)C(C)c1ccccc1)C(=O)N1CCCC1c1ccccc1 (centres unmarked) [G3Ib′] | not | – | – | 44.5 | > 100
